Where two headings read alike, the source gives them in different places.
Experiments:
[1] = biological target: T1, NcLPMO9C (Neurospora crassa, UniProt Q7SHI8); conditions: for Rate (Light Intensity at 620 nm min^−1): 0.5 µM NcLPMO9C, 1 mM ascorbic acid, 100 µM H2O2, pH 6.0, acetic acid 200 mM, mean ± SD; for activity: pH 6
T1 sequence (Q7SHI8 17-359): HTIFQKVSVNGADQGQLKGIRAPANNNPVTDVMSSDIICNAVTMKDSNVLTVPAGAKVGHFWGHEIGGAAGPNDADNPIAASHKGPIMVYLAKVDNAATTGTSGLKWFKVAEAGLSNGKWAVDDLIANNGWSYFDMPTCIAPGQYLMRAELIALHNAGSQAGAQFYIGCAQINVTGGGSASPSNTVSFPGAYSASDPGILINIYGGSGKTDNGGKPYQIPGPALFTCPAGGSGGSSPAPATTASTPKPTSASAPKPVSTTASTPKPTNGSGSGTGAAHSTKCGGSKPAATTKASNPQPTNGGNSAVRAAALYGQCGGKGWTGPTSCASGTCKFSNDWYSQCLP
Protocol: LPMO activity was measured by the attenuation of optical density at 620 nm at 30 °C in 100 mM sodium acetate, 100 mM sodium citrate, or 100 mM sodium phosphate buffer, pH 6.0. […] The pH was checked before and after the measurements. A total volume of 2.5 mL contained 100 mM of buffer, pH 6.0, 0.8 mg/mL PASC, 0.5 or 1.0 µM of NcLPMO9C, 1 mM ascorbic acid or 1 µM NcCDHIIA with 10 mM lactose. A 10 mm quartz cuvette with a magnetic stirrer was used to maintain a homogeneously mixed PASC suspension.
To measure the inhibition by oxalic acid, the change in light intensity per minute was calculated at different inhibitor concentrations. […] LPMO was reduced with ascorbic acid and mixed with H2O2 to measure the activity.
LPMO peroxygenase activity was tested on PASC using a turbidity assay. Reaction was started with H2O2 and rates were obtained from light-intensity decrease at 620 nm. Assay contained 0.5 µM (A) or 1.0 µM (B) NcLPMO9C, 0.8 mg mL^−1 PASC, 1 mM ascorbic acid and 100 µM H2O2, respectively. H2O2 was added after 30 s to the stirred cuvette and the rate calculated from 40 s up to 200 s, having a data interval for each point of 0.1 s. pH was checked after all measurements and data are expressed as mean values (±SE), from three independent repeats. IC50 values were obtained by a nonlinear curve fit and calculating the oxalic acid concentration of oxalic acid at 50% of the rate.

[2] = biological target: T1, NcLPMO9C; test: Amplex Red–horseradish peroxidase assay of the uncoupling reaction (H2O2 production) of LPMO; format: biochemical; design: made in house; host or cells: Pichia pastoris X-33; conditions: 1 µM NcLPMO9C, 1 µM NcCDHIIA, 10 mM lactose, 50 µM AmplexRed, 7 U mL-1 horseradish peroxidase; for Specific activity, NcLPMO9C - background: 100 mM sodium acetate buffer pH 6.0, without or with 100 mM oxalic acid; for Specific activity, NcLPMO9C: not background-corrected
Protocol: (§1) The Amplex Red–horseradish peroxidase assay was used to measure the uncoupling reaction of NcLPMO9C that produces superoxide or H2O2. The activity of LPMO was measured in the presence of oxalic acid as an inhibitory compound.

[3] = test system: NcCDHIIA; test: Amplex Red–horseradish peroxidase assay, background H2O2 production by CDH; format: biochemical, Neurospora crassa; conditions: for Specific activity, Background: without LPMO, 1 µM NcCDHIIA, 10 mM lactose, 50 µM AmplexRed, 7 U mL-1 horseradish peroxidase
Protocol: as §1

[4] = biological target: T1, NcLPMO9C; conditions: - Ascorbic acid (blank); 4 h, 4 × 100 µM H2O2, 100 mM compound
Protocol: NcLPMO9C (1 µM) was incubated with 2 mg mL^−1 PASC, either 1 mM ascorbic acid or 1 µM NcCDHIIA together with 10 mM lactose as reductant and 400 µM H2O2 (4 × 100 µM) as cosubstrate at a total volume of 1 mL. At the beginning and after every hour, 100 µM H2O2 was added to the reaction. The reaction tubes were closed and continuously mixed in the dark for a total reaction time of 4 h. Reactions were stopped by heating to 95 °C for 10 min. The remaining PASC was removed by centrifugation, and the supernatant was analyzed by HPLC. Soluble cello-oligomers (DP 1–6) were used as standards to quantify LPMO-released products. To test the effect of different buffers or inhibitors, 100 mM sodium acetate buffer, pH 6.0, was supplemented with 100 mM of the different compounds.
We analyzed cello-oligomeric product formation after PASC treatment with NcLPMO9C, which is released as a byproduct of cellulose oxidation. […] Conditions with different buffers and reducing agents were tested. In all experiments, LPMO, PASC and H2O2 were present. As a reducing agent, ascorbic acid was chosen, whereas blank reactions were carried out in the absence of ascorbic acid.
H2O2 was added four times every hour.

[5] = biological target: T1, NcLPMO9C; conditions: for peroxidase activity of LPMO at higher concentrations: >100 mM of the substance, 2,6-DMP and hydrocoerulignone assays; for Residual activity to 100 mM acetate buffer, Hydro-Coerulignone: pH 6
Protocol: (§2) LPMO-activity assay using 2000 µM 2,6-DMP or 500 µM hydrocoerulignone were carried out in 100 mM sodium acetate buffer at pH 6.0, at 30 °C using 100 µM H2O2, at 469 nm and a reaction time of 300 s. For blank reactions, the same experiments were performed without adding LPMO. The resulting rate was subtracted from the rate with the addition of LPMO. One unit of LPMO activity is defined as the conversion of either 2 µmol 2,6-DMP or 1 µmol hydrocoerulignone or the formation of 1 µmol coerulignone (ε469 = 53,200 M^−1 cm^−1) per min under reaction conditions. For the inhibition tests, the 100 mM sodium acetate buffer at pH 6.0 was supplemented with 100 mM of the different compounds and the pH was checked before and after the measurements.
(§3) By measuring the LPMO activity in 100 mM sodium acetate buffer, we determined the maximum activity achievable for the applied conditions.

[6] = biological target: T1, NcLPMO9C; test: biochemical; conditions: for IC50: IC50 values as summarised in the text, for both assays (2,6-DMP and hydrocoerulignone), peroxidase reaction; for remaining activity at 100000 µM: pH 6, read-out: Residual activity to 100 mM acetate buffer, Hydro-Coerulignone
Protocol: as §2, §3

| SMILES | Rate (Light Intensity at 620 nm min^−1) [1] | Total cello-oligomers produced [4] [µM] | cellobiose produced [4] [µM] | cellotetraose produced [4] [µM] | cellotriose produced [4] [µM] | also measured |
| --- | --- | --- | --- | --- | --- | --- |
| CC(=O)O [Acetic acid] | 0.14 ± 0.01 Light Intensity at 620 nm min^−1 | 14.6 | 4.2 | 6.2 | 4.3 | Specific activity, NcLPMO9C - background [2]: 4.9 ± 0.1 U g-1; Specific activity, NcLPMO9C [2]: 7.5 ± 0.1 U g-1; Specific activity, Background [3]: 2.6 ± 0.1 U g-1 |
| O=C(O)CC(O)(CC(=O)O)C(=O)O [Citric acid] | 0.014 ± 0.001 Light Intensity at 620 nm min^−1 | 17.3 | 7.2 | 5.9 | 4.2 | activity [1]: 8 ± 1%; peroxidase activity of LPMO at higher concentrations [5]: nondetectable level |
| O=CC=O [Glyoxal] | – | – | – | – | – | Residual activity to 100 mM acetate buffer, Hydro-Coerulignone [5]: 43.9 ± 3.6% |
| O=CC(=O)O [Glyoxylic acid] | – | – | – | – | – | Residual activity to 100 mM acetate buffer, Hydro-Coerulignone [5]: 1.1 ± 0.3% |
| N[C@@H](Cc1c[nH]cn1)C(=O)O [Histidine] | – | – | – | – | – | peroxidase activity of LPMO at higher concentrations [5]: nondetectable level; IC50 [6]: ~1000 µM; remaining activity at 100000 µM [6]: 0.4 ± 0.2% |
| c1c[nH]cn1 [Imidazole] | – | – | – | – | – | Residual activity to 100 mM acetate buffer, Hydro-Coerulignone [5]: 72.2 ± 3.9% |
| CC(O)C(=O)O (centres unmarked) [Lactic acid] | 0.08 ± 0.02 Light Intensity at 620 nm min^−1 | 12.4 | 3.5 | 5.4 | 3.6 | activity [1]: 47 ± 13% |
| O=S(=O)([O-])[O-].[Na+].[Na+] [Na2SO4] | – | – | – | – | – | IC50 ([5]; read-out: IC50 values as summarised in the text, for both assays (2,6-DMP and hydrocoerulignone), peroxidase reaction): ~30000 µM |
| [F-].[Na+] [NaF] | – | – | – | – | – | effect on the activity of the LPMO ([5]; peroxidase assays): did not show any effect on the activity of the LPMO until very high concentrations were used |
| O=C(O)C(=O)O [Oxalic acid] | 0.002 ± 0.001 Light Intensity at 620 nm min^−1 | 15.8 | 6.8 | 5.3 | 3.7 | peroxidase activity of LPMO at higher concentrations [5]: nondetectable level; Specific activity, NcLPMO9C - background [2]: 0.1 ± 0.1 U g-1; Specific activity, NcLPMO9C [2]: 3.5 ± 0.1 U g-1; IC50 [6]: ~1000 µM; remaining activity at 100000 µM [6]: 0.6 ± 0.1%; H2O2 production by NcCDHIIA ([3]; 100 mM oxalic acid): not inhibited; Specific activity, Background [3]: 3.4 ± 0.1 U g-1 |
| O=P(O)(O)O [Phosphoric acid] | 0.107 ± 0.02 Light Intensity at 620 nm min^−1 | 14.8 | 6.9 | 4.6 | 3.3 | – |
| CC(=O)C(=O)O [Pyruvic acid] | – | 9.0 | 5.6 | – | 3.3 | remaining activity at 100000 µM [6]: 4.1 ± 0.4% |

Source: PMC9220355, “Inhibition of the Peroxygenase Lytic Polysaccharide Monooxygenase by Carboxylic Acids and Amino Acids” (Antioxidants, 2022)
